Drawing on patent US20070021434A1, “NON-NUCLEOSIDE ANTI-HEPACIVIRUS AGENTS AND USES THEREOF” (Migenix Inc., priority 2005, published 2007), this text covers IC50 for 27 compounds.

SMILES strings stand for the structures.

As a reminder, the IC50 is the point on the concentration scale where inhibition reaches its midpoint. A higher IC50 goes with a need for much substance.

In this assay the target is HCV RdRp (NS5B) (UniProt P26663). It counts as biochemical, hepatitis C virus.
HCV RdRp (NS5B), sequence (P26663 whole entry, looked up): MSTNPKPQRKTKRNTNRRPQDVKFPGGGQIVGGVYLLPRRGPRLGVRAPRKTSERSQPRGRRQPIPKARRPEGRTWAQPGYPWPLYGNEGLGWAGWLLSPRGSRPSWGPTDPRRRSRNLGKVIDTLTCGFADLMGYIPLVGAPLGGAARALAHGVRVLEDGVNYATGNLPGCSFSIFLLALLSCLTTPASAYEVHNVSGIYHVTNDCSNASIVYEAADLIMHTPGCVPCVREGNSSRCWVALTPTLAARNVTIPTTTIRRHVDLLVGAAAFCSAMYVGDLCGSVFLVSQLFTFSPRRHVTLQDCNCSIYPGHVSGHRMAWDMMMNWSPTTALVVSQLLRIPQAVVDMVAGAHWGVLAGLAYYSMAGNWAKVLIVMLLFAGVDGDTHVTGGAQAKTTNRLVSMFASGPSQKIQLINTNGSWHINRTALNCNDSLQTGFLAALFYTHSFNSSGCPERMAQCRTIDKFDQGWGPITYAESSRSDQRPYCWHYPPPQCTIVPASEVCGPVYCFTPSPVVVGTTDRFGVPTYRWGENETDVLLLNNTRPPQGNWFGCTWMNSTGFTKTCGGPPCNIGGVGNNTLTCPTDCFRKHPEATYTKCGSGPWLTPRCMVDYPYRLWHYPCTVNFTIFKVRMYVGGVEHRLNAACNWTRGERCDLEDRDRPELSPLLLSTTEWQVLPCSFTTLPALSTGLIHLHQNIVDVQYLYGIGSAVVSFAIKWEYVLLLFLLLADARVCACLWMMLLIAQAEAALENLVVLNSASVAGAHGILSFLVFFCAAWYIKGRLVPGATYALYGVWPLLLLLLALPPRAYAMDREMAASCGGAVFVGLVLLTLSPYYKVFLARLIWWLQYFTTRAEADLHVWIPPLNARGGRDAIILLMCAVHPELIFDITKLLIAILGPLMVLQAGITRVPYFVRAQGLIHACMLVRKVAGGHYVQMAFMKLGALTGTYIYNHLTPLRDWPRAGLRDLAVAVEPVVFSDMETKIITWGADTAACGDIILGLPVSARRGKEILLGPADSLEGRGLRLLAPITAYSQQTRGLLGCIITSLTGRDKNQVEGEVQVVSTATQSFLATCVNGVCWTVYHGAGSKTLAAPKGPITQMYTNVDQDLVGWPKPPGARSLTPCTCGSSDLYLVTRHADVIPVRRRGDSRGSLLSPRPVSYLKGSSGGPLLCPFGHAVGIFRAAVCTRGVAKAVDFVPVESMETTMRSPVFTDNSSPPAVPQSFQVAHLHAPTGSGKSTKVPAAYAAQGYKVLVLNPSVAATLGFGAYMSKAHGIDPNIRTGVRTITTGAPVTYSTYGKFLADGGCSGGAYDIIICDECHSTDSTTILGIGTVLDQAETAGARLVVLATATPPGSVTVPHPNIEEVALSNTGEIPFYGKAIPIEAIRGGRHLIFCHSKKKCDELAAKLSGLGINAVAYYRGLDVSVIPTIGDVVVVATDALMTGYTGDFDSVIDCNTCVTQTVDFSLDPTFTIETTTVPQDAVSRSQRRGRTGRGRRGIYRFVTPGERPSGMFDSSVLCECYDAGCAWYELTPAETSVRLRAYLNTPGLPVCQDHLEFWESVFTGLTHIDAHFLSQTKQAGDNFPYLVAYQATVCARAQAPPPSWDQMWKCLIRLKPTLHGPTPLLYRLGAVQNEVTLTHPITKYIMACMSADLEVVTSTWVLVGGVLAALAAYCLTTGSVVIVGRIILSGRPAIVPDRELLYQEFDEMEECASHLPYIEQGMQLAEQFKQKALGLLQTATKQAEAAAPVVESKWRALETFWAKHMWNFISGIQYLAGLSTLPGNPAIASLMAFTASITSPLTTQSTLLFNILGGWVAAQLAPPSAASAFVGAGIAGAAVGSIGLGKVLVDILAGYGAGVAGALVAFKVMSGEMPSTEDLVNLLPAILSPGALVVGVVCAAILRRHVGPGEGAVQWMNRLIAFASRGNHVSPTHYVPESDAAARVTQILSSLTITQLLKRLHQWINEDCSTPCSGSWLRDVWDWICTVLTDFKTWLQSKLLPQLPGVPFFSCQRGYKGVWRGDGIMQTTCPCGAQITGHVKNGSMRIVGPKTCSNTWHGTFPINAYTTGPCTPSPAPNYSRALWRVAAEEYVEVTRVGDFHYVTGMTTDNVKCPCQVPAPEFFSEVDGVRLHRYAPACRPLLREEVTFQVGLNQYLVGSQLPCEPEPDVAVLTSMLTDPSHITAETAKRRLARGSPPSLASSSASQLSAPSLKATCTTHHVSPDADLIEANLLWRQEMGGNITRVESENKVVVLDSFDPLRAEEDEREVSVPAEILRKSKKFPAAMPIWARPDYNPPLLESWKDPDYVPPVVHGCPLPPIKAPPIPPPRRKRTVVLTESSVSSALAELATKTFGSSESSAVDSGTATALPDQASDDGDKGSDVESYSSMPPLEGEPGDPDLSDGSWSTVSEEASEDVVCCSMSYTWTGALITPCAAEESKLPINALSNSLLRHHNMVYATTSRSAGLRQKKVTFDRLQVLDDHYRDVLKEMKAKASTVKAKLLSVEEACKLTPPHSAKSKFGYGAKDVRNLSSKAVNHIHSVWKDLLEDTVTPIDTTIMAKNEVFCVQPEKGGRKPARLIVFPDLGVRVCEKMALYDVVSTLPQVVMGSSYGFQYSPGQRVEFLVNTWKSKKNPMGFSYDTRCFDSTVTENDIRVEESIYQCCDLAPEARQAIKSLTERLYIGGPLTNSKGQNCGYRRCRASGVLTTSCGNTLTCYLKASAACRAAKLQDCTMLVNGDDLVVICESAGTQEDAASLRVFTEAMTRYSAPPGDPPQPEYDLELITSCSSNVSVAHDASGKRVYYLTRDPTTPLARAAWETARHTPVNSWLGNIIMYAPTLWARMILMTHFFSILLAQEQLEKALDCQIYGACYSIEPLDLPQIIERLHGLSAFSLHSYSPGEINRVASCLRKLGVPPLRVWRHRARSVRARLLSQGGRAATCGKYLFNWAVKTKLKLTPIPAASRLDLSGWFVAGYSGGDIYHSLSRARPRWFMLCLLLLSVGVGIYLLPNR
`NCCCC[C@H](NC(=O)OCC1c2ccccc2-c2ccccc21)C(=O)Nc1cccc(OCc2ccccc2)c1` [Compound 211, (S)-[5-AMINO-1-(3-BENZYLOXY-PHENYLCARBAMOYL)-PENTYL]-CARBAMIC ACID 9H-FLUOREN-9-YLMETHYL ESTER] yielded an IC50 of 10 to 50 µM. `Cc1ccc(NC(=O)[C@H](CCCCN)NC(=O)CNCCc2ccccc2)cc1` [Compound 334, (S)-6-AMINO-2-(2-PHENETHYLAMINO-ACETYLAMINO)-HEXANOIC ACID P-TOLYLAMIDE] gave an IC50 of more than 50 µM. The result for `CC(C)(C)c1ccc(NC(=O)[C@H](Cc2ccc(CN)cc2)NC(=O)Nc2ccc(-c3ccccc3)cc2)cc1` [Compound 150, (S)-3-(4-AMINOMETHYL-PHENYL)-2-(3-BIPHENYL-4-YL-UREIDO)-N-(4-TERT-BUTYL-PHENYL)-PROPIONAMIDE] reads less than 10 µM; that for `Cc1cc2cc(NC(=O)[C@H](Cc3ccc(CN)cc3)NC(=O)OCC3c4ccccc4-c4ccccc43)ccc2[nH]1` [Compound 215, (S)-[2-(4-AMINOMETHYL-PHENYL)-1-(2-METHYL-1H-INDOL-5-YLCARBAMOYL)-ETHYL]-CARBAMIC ACID 9H-FLUOREN-9-YLMETHYL ESTER], 10 to 50 µM. The result for `CC(C)(C)c1ccc(NC(=O)[C@H](CCCCN)NC(=O)OCC2c3ccccc3-c3ccccc32)cc1` [Compound 105, (S)-[5-AMINO-1-(4-TERT-BUTYL-PHENYLCARBAMOYL)-PENTYL]-CARBAMIC ACID 9H-FLUOREN-9-YLMETHYL ESTER] reads 10 to 50 µM; that for `COC(=O)c1ccc(C(=O)NC(C)(C)C(=O)Nc2ccc(CN(C(=O)c3ccco3)C3CCCCC3)cc2)cc1` [Compound 3, N-[1-(4-{[CYCLOHEXYL-(FURAN-2-CARBONYL)-AMINO]-METHYL}-PHENYLCARBAMOYL)-1-METHYL-ETHYL]-TERE[…] METHYL ESTER], more than 50 µM. The result for `Cc1ccc(NC(=O)C(CCCCN)NC(=O)NCc2ccccc2)cc1` [Compound 133, (S)-6-AMINO-2-(3-BENZYL-UREIDO)-HEXANOIC ACID P-TOLYLAMIDE] reads more than 50 µM. `Cc1ccc(NC(=O)C2(NC(=O)OCC3c4ccccc4-c4ccccc43)CCNCC2)cc1` [Compound 138, (4-P-TOLYLCARBAMOYL-PIPERIDIN-4-YL)-CARBAMIC ACID 9H-FLUOREN-9-YLMETHYL ESTER]: the IC50 was more than 50 µM. The result for `Cc1ccc(NC(=O)C(CCCCN)NC(=O)c2ccc3c4c(cccc24)CC3)cc1` [Compound 67, (S)-ACENAPHTHENE-5-CARBOXYLIC ACID (5-AMINO-1-P-TOLYLCARBAMOYL-PENTYL)-AMIDE] reads more than 50 µM. The result for `Cc1ccc(NC(=O)[C@H](CCCCN)NS(=O)(=O)c2ccc(Cl)cc2)cc1` [Compound 391, (S)-6-AMINO-2-(4-CHLORO-BENZENESULFONYLAMINO)-HEXANOIC ACID P-TOLYLAMIDE] reads more than 50 µM; that for `Cc1ccc(NC(=O)C(Cc2ccc(CN)cc2)NC(=O)OCC2c3ccccc3-c3ccccc32)cc1` [Compound 129, (S)-[2-(4-AMINOMETHYL-PHENYL)-1-P-TOLYLCARBAMOYL-ETHYL]-CARBAMIC ACID 9H-FLUOREN-9-YLMETHYL ESTER], less than 10 µM; that for `COc1cccc(NCC(=O)N[C@@H](CCCCN)C(=O)Nc2ccc(C)cc2)c1` [Compound 358, (S)-6-AMINO-2-[2-(3-METHOXY-PHENYLAMINO)-ACETYLAMINO]-HEXANOIC ACID P-TOLYLAMIDE], 10 to 50 µM. The result for `C=CCOC(=O)NCCCC[C@H](N)C(=O)Nc1ccc(CN(C(=O)c2ccco2)C2CCCCC2)cc1` [Compound 5, (S)-[5-AMINO-5-(4-{[CYCLOHEXYL-(FURAN-2-CARBONYL)-AMINO]-METHYL}-PHENYLCARBAMOYL)-PENTYL]-CARBAMIC ACID ALLYL ESTER] reads more than 50 µM; that for `Cc1ccc(NC(=O)C(CCCCN)NC(=O)OCC2c3ccccc3-c3ccccc32)cn1` (stereo not drawn) [Compound 294, [5-AMINO-1-(6-METHYL-PYRIDIN-3-YLCARBAMOYL)-PENTYL]-CARBAMIC ACID 9H-FLUOREN-9-YLMETHYL ESTER], more than 50 µM. Consider `Cc1ccc(NC(=O)[C@H](CCCCO)NC(=O)Nc2ccc(OCc3ccccc3)cc2)cc1` [Compound 309, (S)-2-[3-(4-BENZYLOXY-PHENYL)-UREIDO]-6-HYDROXY-HEXANOIC ACID P-TOLYLAMIDE], for which the IC50 was more than 50 µM. Turning to `Cc1ccc(COc2ccc(NC(=O)NC(CCCCN)C(=O)Nc3ccc(C)cc3)cc2)cc1` [Compound 301, (S)-6-AMINO-2-{3-[4-(4-METHYL-BENZYLOXY)-PHENYL]-UREIDO}-HEXANOIC ACID P-TOLYLAMIDE], the IC50 is more than 50 µM. In turn, `Cc1ccc(NC(=O)C(CCCCN)NC(=O)OCC2c3ccccc3-c3ccccc32)cc1` [Compound 36, (R)-(5-AMINO-1-P-TOLYLCARBAMOYL-PENTYL)-CARBAMIC ACID 9H-FLUOREN-9-YLMETHYL ESTER] yielded an IC50 of 10 to 50 µM. In turn, `Cc1ccc(NC(=O)C(CCCCN)NC(=O)Nc2cc(C(F)(F)F)cc(C(F)(F)F)c2)cc1` [Compound 95, (S)-6-AMINO-2-[3-(3,5-BIS-TRIFLUOROMETHYL-PHENYL)-UREIDO]-HEXANOIC ACID P-TOLYLAMIDE] showed an IC50 of 10 to 50 µM.

For the compound `Cc1ccc(NC(=O)CN(CCCCN)C(=O)OCC2c3ccccc3-c3ccccc32)cc1` [Compound 293, (4-AMINO-BUTYL)-(P-TOLYLCARBAMOYL-METHYL)-CARBAMIC ACID 9H-FLUOREN-9-YLMETHYL ESTER], the IC50 was less than 10 µM.

The compound `CSCCC(NC(=O)OCC1c2ccccc2-c2ccccc21)C(=O)Nc1ccc(C)cc1` (stereo not drawn) [Compound 383] displayed an IC50 of more than 50 µM.

`NCc1ccc(NC(=O)C(NC(=O)Nc2ccc(OCc3ccccc3)cc2)c2ccccc2)cc1` [Compound 305, (S)-NR-(4-AMINOMETHYL-PHENYL)-2-[3-(4-BENZYLOXY-PHENYL)-UREIDO]-2-PHENYL-ACETAMIDE]: the IC50 was less than 10 µM. For the compound `Cc1ccc(NC(=O)C(CCCCN)NC(=O)CNc2cccc(C(F)(F)F)c2)cc1` [Compound 364, (S)-6-AMINO-2-[2-(3-TRIFLUOROMETHYL-PHENYLAMINO)-ACETYLAMINO]-HEXANOIC ACID P-TOLYLAMIDE], the IC50 is more than 50 µM. Turning to `NCCCCC(NC(=O)OCC1c2ccccc2-c2ccccc21)C(=O)NC1CCCCC1` (stereo in doubt) [Compound 22, (S)-(5-AMINO-1-CYCLOHEXYLCARBAMOYL-PENTYL)-CARBAMIC ACID 9H-FLUOREN-9-YLMETHYL ESTER], the IC50 fell in the range of 10 to 50 µM. The result for `O=C(N[C@@H](Cc1c[nH]c2ccccc12)C(=O)N(Cc1ccccc1)C1CCCCC1)OCC1c2ccccc2-c2ccccc21` [Compound 49, (S)-[1-(BENZYL-CYCLOHEXYL-CARBAMOYL)-2-(1H-INDOL-3-YL)-ETHYL]-CARBAMIC ACID 9H-FLUOREN-9-YLMETHYL ESTER] reads more than 50 µM.

Compound `Cc1ccc(NC(=O)[C@H](CCCCN)NC(=O)Nc2ccc(OCc3ccc(Cl)cc3Cl)cc2)cc1` [Compound 274, (S)-6-AMINO-2-{3-[4-(2,4-DICHLORO-BENZYLOXY)-PHENYL]-UREIDO}-HEXANOIC ACID P-TOLYLAMIDE] came in with an IC50 of less than 10 µM.

Regarding `Cc1ccc(NC(=O)C(CCCCN)NS(=O)(=O)c2ccc(-c3ccccc3)cc2)cc1` [Compound 70, (S)-6-AMINO-2-(BIPHENYL-4-SULFONYLAMINO)-HEXANOIC ACID P-TOLYLAMIDE], the IC50 is more than 50 µM. The compound `Cc1ccc(NC(=O)C(CCCCN)NC(=O)Nc2cccc(-c3nc4ccccc4o3)c2)cc1` [Compound 271, (S)-6-AMINO-2-[3-(3-BENZOOXAZOL-2-YL-PHENYL)-UREIDO]-HEXANOIC ACID P-TOLYLAMIDE] yielded an IC50 of less than 10 µM.
